We go through three compounds from article doi:10.1101/2023.12.04.569845, “Identification of 4-(6-((2-methoxyphenyl)amino)pyrazin-2-yl)benzoic acids as CSNK2A inhibitors with antiviral activity and improved selectivity over PIM3” (bioRxiv, 2023).

Structures are written as SMILES. Read-outs that look alike come from different tables or passages of the source.

Common to all, as to assay: biochemical
Holding throughout (set-up): Thermal shift (DSF, SYPRO Orange) Tm shift of recombinant kinase domains at 10 uM compound

The target of test [1] is CSNK1E (Homo sapiens, UniProt P49674).
The target of test [2] is EPHA5 (Homo sapiens, UniProt P54756).
Test [3] concerns the target T1, GPRK5 (Homo sapiens, UniProt P34947).
T1 construct: gene GRK5

Test [4] concerns the target T2, JNK3 (Homo sapiens, UniProt P53779).
T2 construct: gene MAPK10

Test [5] addresses T3, MAP2K6 (Homo sapiens, UniProt P52564).
T3 sequence (P52564 1-334): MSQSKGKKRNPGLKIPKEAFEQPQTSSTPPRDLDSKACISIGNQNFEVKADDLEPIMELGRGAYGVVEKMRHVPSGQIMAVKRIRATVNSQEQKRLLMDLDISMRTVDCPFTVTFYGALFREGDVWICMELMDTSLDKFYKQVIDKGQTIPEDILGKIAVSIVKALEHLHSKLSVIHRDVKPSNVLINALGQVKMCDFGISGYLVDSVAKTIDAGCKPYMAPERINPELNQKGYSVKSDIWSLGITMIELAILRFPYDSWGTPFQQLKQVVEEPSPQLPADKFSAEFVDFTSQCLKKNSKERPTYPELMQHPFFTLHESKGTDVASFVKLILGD

In test [6] the target is T4, MRCKa (Homo sapiens, UniProt Q5VT25).
T4 construct: gene CDC42BPA

The target of test [7] is T5, MSK1_b (Homo sapiens, UniProt O75582).
T5 construct: gene RPS6KA5; second (C-terminal) kinase domain

Test [8] addresses T6, NDR2 (Homo sapiens, UniProt Q9Y2H1).
T6 construct: gene STK38L

Test [9] deals with SLK (Homo sapiens, UniProt Q9H2G2).
The target in test [10] is TAF1 (Homo sapiens, UniProt P21675).
The target in test [11] is T7, TLK1 (Homo sapiens, UniProt Q9UKI8).
T7 sequence (Q9UKI8 1-766): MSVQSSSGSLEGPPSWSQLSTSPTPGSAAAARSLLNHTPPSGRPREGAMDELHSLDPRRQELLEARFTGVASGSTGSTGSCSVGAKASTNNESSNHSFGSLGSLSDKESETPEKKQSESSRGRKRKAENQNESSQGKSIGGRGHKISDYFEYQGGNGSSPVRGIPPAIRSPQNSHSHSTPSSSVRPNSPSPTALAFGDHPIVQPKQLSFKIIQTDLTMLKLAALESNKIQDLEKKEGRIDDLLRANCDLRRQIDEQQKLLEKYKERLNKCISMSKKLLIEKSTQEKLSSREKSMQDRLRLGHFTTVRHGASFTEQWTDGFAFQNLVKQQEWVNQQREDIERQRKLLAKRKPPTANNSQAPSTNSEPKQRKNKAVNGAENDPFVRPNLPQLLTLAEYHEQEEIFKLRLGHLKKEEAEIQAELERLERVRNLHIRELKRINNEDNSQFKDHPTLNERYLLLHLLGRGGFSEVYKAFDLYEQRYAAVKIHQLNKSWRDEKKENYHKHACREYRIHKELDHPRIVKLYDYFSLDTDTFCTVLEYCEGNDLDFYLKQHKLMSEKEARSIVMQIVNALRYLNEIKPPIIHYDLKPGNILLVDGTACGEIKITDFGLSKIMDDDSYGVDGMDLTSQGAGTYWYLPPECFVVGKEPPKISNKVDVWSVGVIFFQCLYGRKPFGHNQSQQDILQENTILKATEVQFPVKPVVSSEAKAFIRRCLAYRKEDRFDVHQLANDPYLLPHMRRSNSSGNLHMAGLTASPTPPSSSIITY

Test [12] deals with T8, ULK3 (Homo sapiens, UniProt Q6PHR2).
T8 sequence (Q6PHR2 1-472): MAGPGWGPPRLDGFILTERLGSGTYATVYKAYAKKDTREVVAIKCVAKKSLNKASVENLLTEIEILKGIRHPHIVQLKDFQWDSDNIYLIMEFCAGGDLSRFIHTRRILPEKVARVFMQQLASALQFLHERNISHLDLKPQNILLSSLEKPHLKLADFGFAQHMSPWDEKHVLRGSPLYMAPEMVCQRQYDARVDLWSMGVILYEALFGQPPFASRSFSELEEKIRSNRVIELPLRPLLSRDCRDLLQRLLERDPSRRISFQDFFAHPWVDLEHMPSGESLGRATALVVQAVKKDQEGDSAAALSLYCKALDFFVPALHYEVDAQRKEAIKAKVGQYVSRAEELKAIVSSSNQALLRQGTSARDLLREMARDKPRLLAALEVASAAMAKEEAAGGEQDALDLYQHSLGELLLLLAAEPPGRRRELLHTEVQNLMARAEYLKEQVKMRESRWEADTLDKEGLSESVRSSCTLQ

Chain of SLK (Q9H2G2 whole entry): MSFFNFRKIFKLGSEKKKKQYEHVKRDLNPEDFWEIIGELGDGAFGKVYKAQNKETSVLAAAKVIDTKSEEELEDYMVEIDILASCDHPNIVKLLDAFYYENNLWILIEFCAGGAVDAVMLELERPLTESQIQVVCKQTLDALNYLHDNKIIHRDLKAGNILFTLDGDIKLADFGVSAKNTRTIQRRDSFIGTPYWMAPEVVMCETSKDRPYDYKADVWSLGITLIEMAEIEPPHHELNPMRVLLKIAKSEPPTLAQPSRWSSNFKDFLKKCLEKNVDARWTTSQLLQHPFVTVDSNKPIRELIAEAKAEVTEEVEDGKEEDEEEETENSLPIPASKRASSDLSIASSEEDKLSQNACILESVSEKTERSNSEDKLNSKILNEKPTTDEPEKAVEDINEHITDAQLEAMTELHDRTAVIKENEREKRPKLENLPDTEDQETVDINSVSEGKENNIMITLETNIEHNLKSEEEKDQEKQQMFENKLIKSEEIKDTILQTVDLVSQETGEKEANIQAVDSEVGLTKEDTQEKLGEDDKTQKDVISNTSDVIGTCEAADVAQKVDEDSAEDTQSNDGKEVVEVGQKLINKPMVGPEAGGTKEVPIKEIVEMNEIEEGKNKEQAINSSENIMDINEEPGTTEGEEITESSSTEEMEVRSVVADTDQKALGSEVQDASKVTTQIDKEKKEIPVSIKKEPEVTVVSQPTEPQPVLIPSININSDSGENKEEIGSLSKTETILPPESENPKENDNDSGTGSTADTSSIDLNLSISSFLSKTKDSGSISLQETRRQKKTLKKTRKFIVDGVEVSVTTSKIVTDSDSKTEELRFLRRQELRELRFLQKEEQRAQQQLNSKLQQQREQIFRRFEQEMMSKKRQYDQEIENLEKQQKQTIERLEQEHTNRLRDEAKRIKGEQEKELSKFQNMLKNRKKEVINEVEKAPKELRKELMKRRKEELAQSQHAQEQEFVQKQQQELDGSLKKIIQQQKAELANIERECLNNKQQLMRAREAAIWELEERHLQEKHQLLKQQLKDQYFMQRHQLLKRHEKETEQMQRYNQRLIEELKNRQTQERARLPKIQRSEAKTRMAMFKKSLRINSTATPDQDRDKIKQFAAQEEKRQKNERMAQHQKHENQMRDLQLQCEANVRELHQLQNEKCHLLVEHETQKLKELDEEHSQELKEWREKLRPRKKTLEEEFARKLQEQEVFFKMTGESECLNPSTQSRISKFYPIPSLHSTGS
T6 sequence (Q9Y2H1 whole entry): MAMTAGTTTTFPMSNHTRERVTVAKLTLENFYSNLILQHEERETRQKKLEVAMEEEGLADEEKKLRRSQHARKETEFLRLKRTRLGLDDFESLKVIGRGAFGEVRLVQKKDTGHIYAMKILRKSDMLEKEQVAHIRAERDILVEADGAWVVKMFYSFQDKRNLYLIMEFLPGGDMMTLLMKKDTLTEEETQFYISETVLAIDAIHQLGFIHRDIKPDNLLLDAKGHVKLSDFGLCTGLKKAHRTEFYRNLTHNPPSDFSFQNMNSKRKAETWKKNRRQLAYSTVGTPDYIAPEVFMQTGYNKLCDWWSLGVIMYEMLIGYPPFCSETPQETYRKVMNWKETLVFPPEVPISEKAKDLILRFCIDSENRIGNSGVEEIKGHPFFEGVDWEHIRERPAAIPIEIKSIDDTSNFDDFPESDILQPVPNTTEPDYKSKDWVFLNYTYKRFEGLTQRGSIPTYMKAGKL
T5 sequence (O75582 whole entry, the tested form may be a part): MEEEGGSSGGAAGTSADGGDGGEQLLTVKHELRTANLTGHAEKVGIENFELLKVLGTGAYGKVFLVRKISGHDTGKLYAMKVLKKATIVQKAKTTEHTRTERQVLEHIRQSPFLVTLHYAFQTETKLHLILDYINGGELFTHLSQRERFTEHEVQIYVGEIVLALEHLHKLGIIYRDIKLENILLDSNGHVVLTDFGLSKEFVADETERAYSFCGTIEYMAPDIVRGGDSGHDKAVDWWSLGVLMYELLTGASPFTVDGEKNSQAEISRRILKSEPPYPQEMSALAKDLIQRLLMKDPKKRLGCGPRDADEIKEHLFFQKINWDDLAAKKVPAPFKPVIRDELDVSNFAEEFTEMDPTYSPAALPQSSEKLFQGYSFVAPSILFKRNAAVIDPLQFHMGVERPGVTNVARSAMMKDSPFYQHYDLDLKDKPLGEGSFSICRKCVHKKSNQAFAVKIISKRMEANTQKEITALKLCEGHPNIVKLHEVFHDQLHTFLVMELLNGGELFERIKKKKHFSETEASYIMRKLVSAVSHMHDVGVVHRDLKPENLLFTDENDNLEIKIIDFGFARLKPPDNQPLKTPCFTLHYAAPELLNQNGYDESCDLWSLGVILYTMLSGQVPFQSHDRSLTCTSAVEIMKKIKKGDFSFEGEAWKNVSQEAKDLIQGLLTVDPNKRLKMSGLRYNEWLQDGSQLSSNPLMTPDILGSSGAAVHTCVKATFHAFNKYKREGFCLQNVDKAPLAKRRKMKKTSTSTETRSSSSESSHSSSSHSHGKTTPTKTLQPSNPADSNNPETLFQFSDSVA
T2 sequence (P53779 whole entry): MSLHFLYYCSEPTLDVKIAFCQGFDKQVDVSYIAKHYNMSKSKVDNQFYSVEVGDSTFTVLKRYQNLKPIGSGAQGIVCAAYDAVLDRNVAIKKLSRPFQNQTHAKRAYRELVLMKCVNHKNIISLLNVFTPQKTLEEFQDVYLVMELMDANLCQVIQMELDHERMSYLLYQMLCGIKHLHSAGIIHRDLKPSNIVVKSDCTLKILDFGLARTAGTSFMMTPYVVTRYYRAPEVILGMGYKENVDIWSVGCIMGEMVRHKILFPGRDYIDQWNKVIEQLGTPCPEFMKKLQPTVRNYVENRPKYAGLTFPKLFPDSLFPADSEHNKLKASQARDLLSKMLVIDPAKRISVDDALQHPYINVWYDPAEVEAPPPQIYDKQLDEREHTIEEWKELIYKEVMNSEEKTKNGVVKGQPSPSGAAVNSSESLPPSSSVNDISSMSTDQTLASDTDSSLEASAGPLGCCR
T4 sequence (Q5VT25 whole entry): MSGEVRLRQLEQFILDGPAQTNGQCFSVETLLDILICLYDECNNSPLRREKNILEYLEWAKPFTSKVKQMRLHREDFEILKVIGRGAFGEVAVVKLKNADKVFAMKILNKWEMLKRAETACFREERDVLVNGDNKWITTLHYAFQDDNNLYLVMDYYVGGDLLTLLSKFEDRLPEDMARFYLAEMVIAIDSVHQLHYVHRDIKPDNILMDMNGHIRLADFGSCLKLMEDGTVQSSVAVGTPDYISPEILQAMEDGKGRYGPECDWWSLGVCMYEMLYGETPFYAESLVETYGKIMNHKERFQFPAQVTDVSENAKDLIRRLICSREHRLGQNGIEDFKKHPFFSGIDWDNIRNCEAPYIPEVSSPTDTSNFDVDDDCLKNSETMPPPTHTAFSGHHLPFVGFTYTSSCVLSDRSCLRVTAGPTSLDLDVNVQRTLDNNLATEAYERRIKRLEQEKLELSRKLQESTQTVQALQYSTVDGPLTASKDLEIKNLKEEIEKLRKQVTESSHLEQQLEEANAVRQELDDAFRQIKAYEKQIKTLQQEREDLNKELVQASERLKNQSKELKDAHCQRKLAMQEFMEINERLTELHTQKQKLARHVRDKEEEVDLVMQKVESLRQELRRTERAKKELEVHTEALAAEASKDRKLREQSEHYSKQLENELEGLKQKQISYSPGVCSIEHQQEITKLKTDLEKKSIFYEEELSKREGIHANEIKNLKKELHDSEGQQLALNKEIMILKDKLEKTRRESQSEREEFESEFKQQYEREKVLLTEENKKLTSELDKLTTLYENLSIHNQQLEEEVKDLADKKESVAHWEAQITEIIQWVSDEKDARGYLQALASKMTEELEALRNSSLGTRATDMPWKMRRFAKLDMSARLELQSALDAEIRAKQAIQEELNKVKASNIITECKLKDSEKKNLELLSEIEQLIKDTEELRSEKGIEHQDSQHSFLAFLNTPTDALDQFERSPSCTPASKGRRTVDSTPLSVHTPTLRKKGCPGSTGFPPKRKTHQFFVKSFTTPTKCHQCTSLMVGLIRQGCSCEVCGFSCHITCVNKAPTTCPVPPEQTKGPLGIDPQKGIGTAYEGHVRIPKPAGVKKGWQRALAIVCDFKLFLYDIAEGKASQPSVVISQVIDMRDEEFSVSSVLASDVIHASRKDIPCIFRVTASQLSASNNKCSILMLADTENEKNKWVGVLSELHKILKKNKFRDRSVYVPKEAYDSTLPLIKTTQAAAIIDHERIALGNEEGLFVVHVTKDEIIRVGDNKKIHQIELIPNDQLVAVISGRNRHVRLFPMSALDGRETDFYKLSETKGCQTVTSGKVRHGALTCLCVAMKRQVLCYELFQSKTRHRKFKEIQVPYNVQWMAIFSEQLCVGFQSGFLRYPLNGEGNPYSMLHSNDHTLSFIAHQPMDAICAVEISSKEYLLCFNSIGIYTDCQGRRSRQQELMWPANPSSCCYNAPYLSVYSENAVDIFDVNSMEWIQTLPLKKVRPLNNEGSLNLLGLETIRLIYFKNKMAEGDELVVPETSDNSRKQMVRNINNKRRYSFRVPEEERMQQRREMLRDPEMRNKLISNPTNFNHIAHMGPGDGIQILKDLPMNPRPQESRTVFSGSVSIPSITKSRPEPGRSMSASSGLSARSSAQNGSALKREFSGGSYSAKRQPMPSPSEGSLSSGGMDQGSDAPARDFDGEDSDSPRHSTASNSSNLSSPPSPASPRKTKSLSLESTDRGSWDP

`CC(C)Oc1ccc2ccn(-c3cncc(-c4ccc(C(=O)O)cc4)n3)c2c1` [6c]: the ΔTm at 10 µM in test [1] (read-out: 6c) was 3 °C; in test [2] (read-out: 6c) it was 2 °C; in test [3] (read-out: 6c) it was 4 °C; in [4] (read-out: 6c), 3 °C; in test [5] (read-out: 6c), 3 °C; in test [6] (read-out: 6c) it was -1 °C. For the same compound, the ΔTm at 10 µM in test [7] (read-out: 6c) is 6 °C; in test [8] (read-out: 6c), -1 °C; in [9] (read-out: 6c), 2 °C; in [10] (read-out: 6c), 1 °C; in test [11] (read-out: 6c) it was -1 °C; in [12] (read-out: 6c) it was 5 °C.

Regarding `COc1ccc(OC(C)C)cc1Nc1cncc(-c2ccc(C(=O)O)cc2)n1` [7c], the ΔTm at 10 µM in test [1] (read-out: 7c) is 1 °C; in [2] (read-out: 7c), 1 °C; in test [3] (read-out: 7c) it was 4 °C; in test [4] (read-out: 7c) it was 1 °C; in test [5] (read-out: 7c), 0 °C; in test [6] (read-out: 7c) it was 0 °C. Further, the ΔTm at 10 µM is 6 °C in test [7] (read-out: 7c); -1 °C in test [8] (read-out: 7c); 1 °C in test [9] (read-out: 7c); 1 °C in test [10] (read-out: 7c); -1 °C in test [11] (read-out: 7c); 3 °C in [12] (read-out: 7c).

For the compound `CC(C)Nc1ccc2cnn(-c3cncc(-c4ccc(C(=O)O)cc4)n3)c2c1` [compound 2, 2], the ΔTm at 10 µM was found to be 2 °C in test [1] (read-out: 2); 2 °C in [2] (read-out: 2); 6 °C in test [3] (read-out: 2); 6 °C in [4] (read-out: 2); 2 °C in [5] (read-out: 2); 0 °C in test [6] (read-out: 2). In addition, the ΔTm at 10 µM was 11 °C in test [7] (read-out: 2); -2 °C in [8] (read-out: 2); 3 °C in test [9] (read-out: 2); 0 °C in [10] (read-out: 2); 1 °C in test [11] (read-out: 2); 7 °C in test [12] (read-out: 2).
